Data reported in patent US7491794B2, “Macrocyclic compounds as inhibitors of viral replication” (Intermune, Inc., priority 2003, dated 2009).
Like-named read-outs stand apart in the source and are kept apart here.

Experiments:
NS3-NS4 protease = target: T1, NS3-NS4 protease (Hepatitis C virus genotype 1a, UniProt P27958); assay: NS3-NS4 protease assay / NS3 inhibition assay, Section D; assay type: biochemical
T1 construct: Recombinant E. coli or Baculovirus full-length NS3 was diluted to 3.33 μM with assay buffer; made in house; host or cells: E. coli or baculovirus (BV) system
T1 sequence (P27958 1027-1657): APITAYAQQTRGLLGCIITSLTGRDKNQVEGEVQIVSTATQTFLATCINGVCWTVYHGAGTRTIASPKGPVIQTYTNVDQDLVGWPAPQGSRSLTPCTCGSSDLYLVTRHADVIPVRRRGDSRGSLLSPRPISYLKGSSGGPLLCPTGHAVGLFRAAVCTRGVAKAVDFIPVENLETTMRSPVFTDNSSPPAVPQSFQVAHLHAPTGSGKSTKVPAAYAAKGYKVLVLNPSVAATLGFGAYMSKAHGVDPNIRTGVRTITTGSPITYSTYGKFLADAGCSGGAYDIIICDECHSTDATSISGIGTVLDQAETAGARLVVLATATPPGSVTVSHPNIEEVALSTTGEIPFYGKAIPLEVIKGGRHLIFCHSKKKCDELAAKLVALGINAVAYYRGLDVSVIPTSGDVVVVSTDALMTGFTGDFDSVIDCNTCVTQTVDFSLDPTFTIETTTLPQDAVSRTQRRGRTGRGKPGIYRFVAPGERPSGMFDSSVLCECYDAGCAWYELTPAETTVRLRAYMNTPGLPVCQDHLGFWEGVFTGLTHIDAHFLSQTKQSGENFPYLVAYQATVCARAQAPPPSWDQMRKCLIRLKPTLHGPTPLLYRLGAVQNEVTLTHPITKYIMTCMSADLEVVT
Method: NS3-NS4 Protease Assay NS3 complex formation with NS4A-2.
Recombinant E. coli or Baculovirus full-length NS3 was diluted to 3.33 μM with assay buffer and transferred material to an eppendorf tube and place in water bath in 4° C. refrigerator. The appropriate amount of NS4A-2 to 8.3 mM in assay buffer was added to equal the volume of NS3 in step 2.1.1 (conversion factor −3.8 mg/272 μL assay buffer). The material was transferred to an eppendorf tube and place in water bath in 4° C. refrigerator.
After equilibration to 4° C., equal volumes of NS3 and NS4A-2 solutions were combined in an eppendorf tube, mix gently with a manual pipettor, and incubate mixture for 15 minutes in the 4° C. water bath. Final concentrations in the mixture are 1.67 μM NS3, 4.15 mM NS4A-2 (2485-fold molar excess NS4A-2).
After 15 minutes at 4° C., the NS3/NS4A-2 eppendorf tube was removed and placed in a room temperature water bath for 10 minutes. NS3/NS4A-2 was alliquoted at appropriate volumes and store at −80° C. (E. coli NS3 run at 2 nM in assay, aliquot at 25 μL. BV NS3 run at 3 nM in assay, aliquot at 30 μL).
Sample compounds were dissolved to 10 mM in DMSO then diluted to 2.5 mM (1:4) in DMSO.
The E. coli. NS3/NS4A-2 was diluted to 4 nM NS3 (1:417.5 of 1.67 μM stock−18 μL 1.67 μM stock+7497 μL assay buffer).
The BV NS3/NS4A-2 was diluted to 6 nM NS3 (1:278.3 of 1.67 μM stock−24 μL 1.67 μM stock+6655 μL assay buffer).
Using the manual multichannel pipettor, careful not to introduce bubbles into the plate, add 50 μL assay buffer to wells A01-H01 of a black Costar 96-well polypropylene storage plate.
Using the manual multichannel pipettor, careful not to introduce bubbles into the plate, add 50 μL of diluted NS3/NS4A-2 from step 2.2.6 to wells A02-H12 of plate in step 2.2.7.
Using the manual multichannel pipettor, careful not to introduce bubbles into the plate, transfer 25 μL of the wells in drug dilution plate in step 2.2.5 to corresponding wells in assay plate in step 2.2.8. Change tips on multichannel pipettor for each row of compounds transferred.
Using the manual multichannel pipettor, careful not to introduce bubbles into the plate, mix the wells from the assay plate in step 2.2.9 by aspirating and dispensing 35 μL of the 75 μL in each well five times. Change tips on multichannel pipettor for each row of wells mixed.
Cover plate with a polystyrene plate lid and pre-incubate the plate from step 2.2.10 containing NS3 protease and sample compounds 10 minutes at room temperature.
While plate from step 2.2.11 is pre-incubating, dilute RETS1 substrate in a 15 mL polypropylene centrifuge tube.
Dilute RETS1 substrate to 8 μM (1:80.75 of 646 μM stock−65 μL 646 μM stock+5184 μL assay buffer).
After the plate in step is done pre-incubating, and using the manual multichannel, add 25 μL of substrate to all wells on the plate. Quickly mix the plate as in step 2.2.10, mixing 65 μL of the 100 μL in the wells.
Read the plate in kinetic mode on the Molecular Devices SpectraMax Gemini XS plate reader. Reader settings: Read time: 30 minutes, Interval: 36 seconds, Reads: 51, Excitation k: 335 nm, Emission k: 495 nm, cutoff: 475 nm, Automix: off, Calibrate: once, PMT: high, Reads/well: 6, Vmax pts: 21 or 28/51 depending on length of linearity of reaction.
IC50s are determined using a four parameter curve fit equation, and converted to Ki's using the following Km's:
where Ki=IC50/(1+[S]/Km))

NS3-NS4A protease = target: T2, NS3-NS4A protease (Hepatitis C virus genotype 1a, UniProt P27958); assay: NS3-NS4A protease assay (NS3 inhibition assay, RETS1 substrate), Section B; assay type: biochemical; conditions: read-out: NS3-NS4A IC50
T2 construct: Recombinant E. coli or Baculovirus full-length NS3 was diluted to 3.33 μM with assay buffer; made in house; host or cells: E. coli or baculovirus (BV) system
T2 sequence (P27958 1027-1657): as above
Procedure, shortened: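 Full-length NS3 (E. coli or baculovirus) precomplexed with excess NS4A-2 peptide, run at 2 nM (E. coli) or 3 nM (BV) NS3; compounds pre-incubated 10 min at room temperature before RETS1 substrate. Fluorescence (ex 335/em 495 nm) read kinetically 30 min; IC50 from four-parameter fit, converted to Ki via Ki=IC50/(1+[S]/Km).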

[1] = test system: HCV sub-genomic replicon, GS4.3; assay: Quantitation by ELISA of NPTII in the HCV sub-genomic replicon, GS4.3, Section B; assay type: cell-based; conditions: Hepatitis C virus, read-out: Replicon EC50
Procedure, shortened: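 GS4.3 cells (HuH-7 carrying HCV 1377/NS3-3′ replicon) were treated 72 h at 37 °C with inhibitors in 3-fold dilutions, 1% DMSO, no G418. Lysate NPTII was measured by ELISA (TMB, 450 nm). Signal as % of DMSO control; EC50 from 4-parameter fit.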

Row | Compound | IC50 (NS3-NS4 protease) | also measured
1 | CN(C)c1ccc(C(=O)N[C@@H]2C[C@H]3C(=O)N[C@]4(C(=O)NS(=O)(=O)C5CC5)C[C@H]4/C=C\CCCCC[C@H](NC(=O)OC(C)(C)C)C(=O)N3C2)cc1 [Example 11] | < 100 nM | –
2 | CC(C)(C)OC(=O)N[C@H]1CCCCC/C=C\[C@@H]2C[C@@]2(C(=O)O)NC(=O)[C@@H]2C[C@@H](NC(=O)c3sc4cc(F)ccc4c3Cl)CN2C1=O [Example 65] | < 1000 nM | –
3 | CCc1ccc(C(=O)N[C@@H]2C[C@H]3C(=O)N[C@]4(C(=O)O)C[C@H]4/C=C\CCCCC[C@H](NC(=O)OC(C)(C)C)C(=O)N3C2)cc1 [Example 68] | < 10000 nM | –
4 | CC(C)(C)NC(=O)N[C@H]1CCCCC/C=C\[C@@H]2C[C@@]2(C(=O)NS(=O)(=O)C2CC2)NC(=O)[C@@H]2C[C@@H](NC(=O)c3cc4ccccc4s3)CN2C1=O [Example 54] | < 100 nM | –
5 | CC(C)(C)OC(=O)N[C@H]1CCCCC/C=C\[C@@H]2C[C@@]2(C(=O)O)NC(=O)[C@@H]2C[C@@H](NC(=O)c3sc4ccccc4c3Cl)CN2C1=O [Example 64] | < 1000 nM | –
6 | O=C(N[C@H]1CCCCC/C=C\[C@@H]2C[C@@]2(C(=O)NS(=O)(=O)C2CC2)NC(=O)[C@@H]2C[C@@H](NC(=O)c3sc4ccccc4c3Cl)CN2C1=O)OCC1CC1 [Example 52] | < 100 nM | –
7 | CC(C)(C)OC(=O)N[C@H]1CCCCC/C=C\[C@@H]2C[C@@]2(C(=O)NS(=O)(=O)C2CC2)NC(=O)[C@@H]2C[C@@H](NC(=O)c3ccc4ccccc4c3)CN2C1=O [Example 27] | < 100 nM | –
8 | CC(C)(C)OC(=O)N[C@H]1CCCCC/C=C\[C@@H]2C[C@@]2(C(=O)NS(=O)(=O)C2CC2)NC(=O)[C@@H]2C[C@@H](NC(=O)c3ccccc3)CN2C1=O [Example 2] | < 100 nM | –
9 | CC(C)(C)OC(=O)N[C@H]1CCCCC/C=C\[C@@H]2C[C@@]2(C(=O)NS(=O)(=O)C2CC2)NC(=O)[C@@H]2C[C@@H](NC(=O)c3ccc(-c4ccc(Cl)cc4)o3)CN2C1=O [Example 22] | < 100 nM | –
10 | CC(C)(C)OC(=O)N[C@H]1CCCCC/C=C\[C@@H]2C[C@@]2(C(=O)NS(=O)(=O)C2CC2)NC(=O)[C@@H]2C[C@@H](NC(=O)c3cnc4ccccc4c3)CN2C1=O [Example 29] | < 100 nM | –
11 | CC(C)(C)OC(=O)N[C@H]1CCCCC/C=C\[C@@H]2C[C@@]2(C(=O)NS(=O)(=O)C2CC2)NC(=O)[C@@H]2C[C@@H](NC(=O)c3csc(-c4ccc(Cl)cc4)n3)CN2C1=O [Example 26] | < 100 nM | –
12 | O=C(N[C@H]1CCCCC/C=C\[C@@H]2C[C@@]2(C(=O)O)NC(=O)[C@@H]2C[C@@H](OC(=O)N3CCc4ccccc4C3)CN2C1=O)O[C@@H]1CCOC1 [AR00304127, (1S,4R,6S,14S,18R)-18-(3,4-Dihydro-1H-isoquinoline-2-carbonyloxy)-2,15-dioxo-14-(tetrahydro-furan-3R-yloxycarbonylamino)-3,16-diaza-tricyclo[14.3.0.0^4,6]nonadec-7-ene-4-carboxylic acid] | – | IC50 (NS3-NS4A protease): < 1000 nM; EC50 ([1]; GS4.3 cells, 72 h incubation): < 10000 nM
13 | O=C(N[C@H]1CCCCC/C=C\[C@@H]2C[C@@]2(C(=O)NS(=O)(=O)C2CC2)NC(=O)[C@@H]2C[C@@H](OC(=O)N3Cc4ccccc4C3)CN2C1=O)O[C@H]1CCOC1 [AR00320080, (1S,4R,6S,14S,18R)-1,3-Dihydro-isoindole-2-carboxylic acid 4-cyclopropanesulfonylaminocarbonyl-2,15-dioxo-14-(tetrahydro-furan-3S-yloxycarbonylamino)-3,16-diaza-tricyclo[14.3.0.0^4,6]nonadec-7-en-18-yl ester] | – | IC50 (NS3-NS4A protease): < 100 nM; EC50 ([1]; GS4.3 cells, 72 h incubation): < 1000 nM
14 | CC(C)S(=O)(=O)NC(=O)[C@@]12C[C@H]1/C=C\CCCCC[C@H](NC(=O)OC(C)(C)C)C(=O)N1C[C@H](OC(=O)N3CCc4ccccc4C3)C[C@H]1C(=O)N2 [AR00261407, (1S,4R,6S,14S,18R)-3,4-Dihydro-1H-isoquinoline-2-carboxylic acid 14-tert-butoxycarbonylamino-2,15-dioxo-4-(propane-2-sulfonylaminocarbonyl)-3,16-diaza-tricyclo[14.3.0.0^4,6]nonadec-7-en-18-yl ester] | – | IC50 (NS3-NS4A protease): < 100 nM; EC50 ([1]; 72 h): < 1000 nM
15 | CC1(C)CN(C(=O)O[C@@H]2C[C@H]3C(=O)N[C@]4(C(=O)NS(=O)(=O)C5CC5)C[C@H]4/C=C\CCCCC[C@H](NC(=O)O[C@H]4CCOC4)C(=O)N3C2)Cc2ccccc21 [AR00314654, (1S,4R,6S,14S,18R)-4,4-Dimethyl-3,4-dihydro-1H-isoquinoline-2-carboxylic acid 4-cyclopropanesulfonylaminocarbonyl-2,15-dioxo-14-(tetrahydro-furan-3S-yloxycarbonylamino)-3,16-diaza-tricyclo[14.3.0.0^4,6]nonadec-7-en-18-yl ester] | – | IC50 (NS3-NS4A protease): < 100 nM; EC50 ([1]; GS4.3 cells, 72 h incubation): < 100 nM
16 | CC(C)(C)NC(=O)N[C@H]1CCCCC/C=C\[C@@H]2C[C@@]2(C(=O)NS(=O)(=O)C2CC2)NC(=O)[C@@H]2C[C@@H](OC(=O)N3Cc4ccc(Cl)cc4C3)CN2C1=O [AR00320446, (1S,4R,6S,14S,18R)-5-Chloro-1,3-dihydro-isoindole-2-carboxylic acid 14-(3-tert-butyl-ureido)-4-cyclopropanesulfonylaminocarbonyl-2,15-dioxo-3,16-diaza-tricyclo[14.3.0.0^4,6]nonadec-7-en-18-yl ester] | – | IC50 (NS3-NS4A protease): < 100 nM; EC50 ([1]; GS4.3 cells, 72 h incubation): < 100 nM

Continued, in another order:

Row | IC50 (NS3-NS4 protease) | Compound | also measured
17 | < 100 nM | CC(C)(C)OC(=O)N[C@H]1CCCCC/C=C\[C@@H]2C[C@@]2(C(=O)NS(=O)(=O)C2CC2)NC(=O)[C@@H]2C[C@@H](NC(=O)c3ccc(N4CCOCC4)nc3)CN2C1=O [Example 14] | –
18 | < 100 nM | CC(C)(C)OC(=O)N[C@H]1CCCCC/C=C\[C@@H]2C[C@@]2(C(=O)NS(=O)(=O)C2CC2)NC(=O)[C@@H]2C[C@@H](NC(=O)c3nc4ccccc4[nH]3)CN2C1=O [Example 47] | –
19 | < 100 nM | CC(C)(C)OC(=O)N[C@H]1CCCCC/C=C\[C@@H]2C[C@@]2(C(=O)NS(=O)(=O)C2CC2)NC(=O)[C@@H]2C[C@@H](NC(=O)c3ccc(Cl)cc3)CN2C1=O [Example 4] | –
20 | < 100 nM | CC(C)(C)OC(=O)N[C@H]1CCCCC/C=C\[C@@H]2C[C@@]2(C(=O)NS(=O)(=O)C2CC2)NC(=O)[C@@H]2C[C@@H](NC(=O)c3csc(-c4ccccc4)n3)CN2C1=O [Example 24] | –
21 | < 100 nM | CN(C)c1ccc(C(=O)N[C@@H]2C[C@H]3C(=O)N[C@]4(C(=O)NS(=O)(=O)C5CC5)C[C@H]4/C=C\CCCCC[C@H](NC(=O)OC(C)(C)C)C(=O)N3C2)cn1 [Example 13] | –
22 | < 100 nM | CC(C)(C)OC(=O)N[C@H]1CCCCC/C=C\[C@@H]2C[C@@]2(C(=O)NS(=O)(=O)C2CC2)NC(=O)[C@@H]2C[C@@H](NC(=O)c3cc4ccccc4[nH]3)CN2C1=O [Example 31] | –
23 | < 100 nM | CC(C)(C)OC(=O)N[C@H]1CCCCC/C=C\[C@@H]2C[C@@]2(C(=O)NS(=O)(=O)C2CC2)NC(=O)[C@@H]2C[C@@H](NC(=O)c3cnc4ccccc4n3)CN2C1=O [Example 30] | –
24 | < 100 nM | CC(C)(C)OC(=O)N[C@H]1CCCCC/C=C\[C@@H]2C[C@@]2(C(=O)NS(=O)(=O)C2CC2)NC(=O)[C@@H]2C[C@@H](NC(=O)c3ccc(S(N)(=O)=O)cc3)CN2C1=O [Example 17] | –
